Biological target: TRKA (Homo sapiens (Human), UniProt P04629)
Test: Isolated TRK enzyme assay (HTRF KinEASE-TK), PV3144 TrkA enzyme assay
Type: biochemical
Settings: arithmetic mean where more than one reading
Method: Isolated TRK Enzyme assays use the HTRF KinEASE-TK kit (Cisbio Cat#62TK0PEJ) with recombinant His-tagged cytoplasmic domains of each TRK receptor sourced from Invitrogen (see table below). This activity-assay measures the phosphorylation of tyrosine residues within a substrate from the HTRF kit which has been validated by Cisbio for a variety of tyrosine kinases including the TRK receptors.
0.5 mM stock solutions of test compounds are prepared and serially diluted in 100% DMSO. A standard curve using the compound of Example 135 disclosed in WO2005/116035 of 150 uM is also prepared on each test plate. High percentage effect (HPE) is defined by 150 uM (using the compound of Example 135 as disclosed in WO2005/116035) and 0% effect (ZPE) is defined by 100% DMSO. Greiner low volume black plates containing 0.2 ul of serially diluted compound, standard and HPE/ZPE are created using the Bravo nanoliter dispenser.
1× enzyme buffer is prepared from 5× Enzymatic Buffer from the Cisbio KinEASE TK kit using MilliQ water. The buffer is then supplemented with 10 mM MgCI and 2 mM DTT (both from Sigma). In the case of TRKB, the buffer is also supplemented with 125 nM Supplement Enzymatic Buffer (SEB) from the Cisbio kit.
2× FAC of enzyme and 2× FAC ATP diluted in 1× complete enzyme buffer is incubated at room temperature for 20 minutes to preactivate the enzyme. Following this preactivation step, 5 ul/well of enzyme+ATP mix is added using a Multidrop Micro to the assay plate, spotted with 0.2 ul 100% DMSO compound. This is left for 20 mins at room temperature before adding 5 ul of 2 uM TK-substrate-Biotin (from the Cisbio kit) diluted in 1× enzyme buffer (1 uM FAC) using the Multidrop Micro. The reaction is incubated at room temperature for the optimized assay reaction time (see table). The reaction is stopped by adding 10 ul/well HTRF Detection Buffer containing 0.25 uM Streptavidin-XL665 (0.125 uM FAC) and 1:200 TK Antibody-Cryptate using a Multidrop.
After the Detection Reagent addition, plates are covered and incubated at room temperature for 60 minutes. HTRF signal is read using an Envision reader, measured as a ratio of emissions at two different wavelengths, 620 nm and 665 nm. […] Test compound data are expressed as percentage inhibition defined by HPE and ZPE values for each plate. Percentage inhibition in the presence of test compound is plotted against compound concentration on a log scale to determine an IC50 from the resultant sigmoid curve.
Where more than one reading was taken, the arithmetic mean is presented.

Chain of TRKA (P04629 441-796): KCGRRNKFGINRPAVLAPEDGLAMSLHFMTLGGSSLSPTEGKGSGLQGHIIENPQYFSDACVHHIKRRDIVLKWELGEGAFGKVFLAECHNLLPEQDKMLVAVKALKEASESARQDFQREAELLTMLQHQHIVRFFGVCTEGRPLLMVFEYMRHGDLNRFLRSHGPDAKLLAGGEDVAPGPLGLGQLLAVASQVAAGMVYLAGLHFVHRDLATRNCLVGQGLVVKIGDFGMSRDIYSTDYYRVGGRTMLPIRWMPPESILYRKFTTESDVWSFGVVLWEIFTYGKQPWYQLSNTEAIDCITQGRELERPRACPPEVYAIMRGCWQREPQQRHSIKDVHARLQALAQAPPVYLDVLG

Row | Compound | IC50 [nM]
1 | 2-(2,5-dicyclopropyl-1,3-oxazol-4-yl)-N-(4-{[1-(oxetan-3-yl)-1H-pyrrolo[3,2-c]pyridin-3-yl]carbonyl}pyridin-2-yl)acetamide [Example 203] | 71.3
2 | 2-(3-methoxyphenyl)-N-(5-{[1-(propan-2-yl)-1H-pyrrolo[3,2-c]pyridin-3-yl]carbonyl}pyridin-3-yl)acetamide [Example 129] | 96.2
3 | CC(CO)n1cc(C(=O)c2cc(NC(=O)Cc3ccc(Cl)cn3)ccn2)c2cnccc21 (single isomer, unassigned) [Example 17, 2-(5-chloropyridin-2-yl)-N-(2-{[1-(1-hydroxypropan-2-yl)-1H-pyrrolo[3,2-c]pyridin-3-yl]carbonyl}pyridin-4-yl)acetamide] | 106
4 | CC(CO)n1cc(C(=O)c2cc(NC(=O)Cc3cccc(C(F)(F)F)c3)ccn2)c2cnccc21 (single isomer, unassigned) [Example 18, 2-(3-trifluoromethylphenyl)-N-(2-{[1-(1-hydroxypropan-2-yl)-1H-pyrrolo[3,2-c]pyridin-3-yl]carbonyl}pyridin-4-yl)acetamide] | 36.4
5 | CC(CO)n1cc(C(=O)c2cncc(NC(=O)Cc3cccc(C(F)(F)F)c3)c2)c2cnccc21 (single isomer, unassigned) [Example 34, N-(5-{[1-(1-hydroxypropan-2-yl)-1H-pyrrolo[3,2-c]pyridin-3-yl]carbonyl}pyridin-3-yl)-2-[3-(trifluoromethyl)phenyl]acetamide] | 17.1
6 | CC(CO)n1cc(C(=O)c2cncc(NC(=O)Cc3ccc(C(F)(F)F)cc3)c2)c2cnccc21 (single isomer, unassigned) [Example 35, N-(5-{[1-(1-hydroxypropan-2-yl)-1H-pyrrolo[3,2-c]pyridin-3-yl]carbonyl}pyridin-3-yl)-2-[4-(trifluoromethyl)phenyl]acetamide] | 87.9
7 | CC(CO)n1cc(C(=O)c2cncc(NC(=O)Cc3cccc(C(F)(F)F)c3)c2)c2cnccc21 (single isomer, unassigned) [Example 36, N-(5-{[1-(1-hydroxypropan-2-yl)-1H-pyrrolo[3,2-c]pyridin-3-yl]carbonyl}pyridin-3-yl)-2-[3-(trifluoromethyl)phenyl]acetamide] | 44.7
8 | CC(CO)n1cc(C(=O)c2cncc(NC(=O)Cn3cc(C(F)(F)F)nn3)c2)c2cnccc21 (single isomer, unassigned) [Example 59, N-(5-{[1-(1-hydroxypropan-2-yl)-1H-pyrrolo[3,2-c]pyridin-3-yl]carbonyl}pyridin-3-yl)-2-[4-(trifluoromethyl)-1H-1,2,3-triazol-1-yl]acetamide] | 63.9
9 | CC(CO)n1cc(C(=O)c2cncc(NC(=O)Cn3cc(C4CC4)nn3)c2)c2cnccc21 (single isomer, unassigned) [Example 61, 2-(4-cyclopropyl-1H-1,2,3-triazol-1-yl)-N-(5-{[1-(1-hydroxypropan-2-yl)-1H-pyrrolo[3,2-c]pyridin-3-yl]carbonyl}pyridin-3-yl)acetamide] | 65.9
10 | CC(C)c1cn(CC(=O)Nc2cncc(C(=O)c3cn(C(C)CO)c4ccncc34)c2)nn1 (single isomer, unassigned) [Example 62, N-(5-{[1-(1-hydroxypropan-2-yl)-1H-pyrrolo[3,2-c]pyridin-3-yl]carbonyl}pyridin-3-yl)-2-[4-(propan-2-yl)-1H-1,2,3-triazol-1-yl]acetamide] | 54.3
11 | Cc1cc(C(F)(F)F)nn1CC(=O)Nc1cncc(C(=O)c2cn(C(C)CO)c3ccncc23)c1 (single isomer, unassigned) [Example 63, N-(5-{[1-(1-hydroxypropan-2-yl)-1H-pyrrolo[3,2-c]pyridin-3-yl]carbonyl}pyridin-3-yl)-2-[5-methyl-3-(trifluoromethyl)-1H-pyrazol-1-yl]acetamide] | 28.8
12 | CC(C)n1ncc(CC(=O)Nc2cncc(C(=O)c3cn(C(C)CO)c4ccncc34)c2)c1C(F)(F)F (single isomer, unassigned) [Example 64, N-(5-{[1-(1-hydroxypropan-2-yl)-1H-pyrrolo[3,2-c]pyridin-3-yl]carbonyl}pyridin-3-yl)-2-[1-(propan-2-yl)-5-(trifluoromethyl)-1H-pyrazol-4-yl]acetamide] | 105
13 | CC(CO)n1cc(C(=O)c2cncc(NC(=O)Cc3ccc(C(F)(F)F)cc3)c2)c2cnccc21 (single isomer, unassigned) [Example 65, N-(5-{[1-(1-hydroxypropan-2-yl)-1H-pyrrolo[3,2-c]pyridin-3-yl]carbonyl}pyridin-3-yl)-2-[4-(trifluoromethyl)phenyl]acetamide] | 37
14 | CC(CO)n1cc(C(=O)c2cncc(NC(=O)Cc3ccc(Cl)cn3)c2)c2cnccc21 (single isomer, unassigned) [Example 66, 2-(5-chloropyridin-2-yl)-N-(5-{[1-(1-hydroxypropan-2-yl)-1H-pyrrolo[3,2-c]pyridin-3-yl]carbonyl}pyridin-3-yl)acetamide] | 37.6
15 | CC(CO)n1cc(C(=O)c2cncc(NC(=O)Cc3ccc(F)cn3)c2)c2cnccc21 (single isomer, unassigned) [Example 68, 2-(5-fluoropyridin-2-yl)-N-(5-{[1-(1-hydroxypropan-2-yl)-1H-pyrrolo[3,2-c]pyridin-3-yl]carbonyl}pyridin-3-yl)acetamide] | 201
16 | CC(CO)n1cc(C(=O)c2cncc(NC(=O)Cn3cc(C(F)(F)F)nn3)c2)c2cnccc21 (single isomer, unassigned) [Example 69, N-(5-{[1-(1-hydroxypropan-2-yl)-1H-pyrrolo[3,2-c]pyridin-3-yl]carbonyl}pyridin-3-yl)-2-[4-(trifluoromethyl)-1H-1,2,3-triazol-1-yl]acetamide] | 77.6
17 | CC(C)c1cn(CC(=O)Nc2cncc(C(=O)c3cn(C(C)CO)c4ccncc34)c2)nn1 (single isomer, unassigned) [Example 70, N-(5-{[1-(1-hydroxypropan-2-yl)-1H-pyrrolo[3,2-c]pyridin-3-yl]carbonyl}pyridin-3-yl)-2-[4-(propan-2-yl)-1H-1,2,3-triazol-1-yl]acetamide] | 65.6
18 | CC(C)n1ncc(CC(=O)Nc2cncc(C(=O)c3cn(C(C)CO)c4ccncc34)c2)c1C(F)(F)F (single isomer, unassigned) [Example 71, N-(5-{[1-(1-hydroxypropan-2-yl)-1H-pyrrolo[3,2-c]pyridin-3-yl]carbonyl}pyridin-3-yl)-2-[1-(propan-2-yl)-5-(trifluoromethyl)-1H-pyrazol-4-yl]acetamide] | 149
19 | CC(CO)n1cc(C(=O)c2cncc(NC(=O)Cc3ccc(C#N)cc3)c2)c2cnccc21 (single isomer, unassigned) [Example 72, 2-(4-cyanophenyl)-N-(5-{[1-(1-hydroxypropan-2-yl)-1H-pyrrolo[3,2-c]pyridin-3-yl]carbonyl}pyridin-3-yl)acetamide] | 125
20 | CC(CO)n1cc(C(=O)c2cncc(NC(=O)Cc3ccc(Cl)cn3)c2)c2cnccc21 (single isomer, unassigned) [Example 73, 2-(5-chloropyridin-2-yl)-N-(5-{[1-(1-hydroxypropan-2-yl)-1H-pyrrolo[3,2-c]pyridin-3-yl]carbonyl}pyridin-3-yl)acetamide] | 88.3
21 | CC(CO)n1cc(C(=O)c2cncc(NC(=O)Cc3ccc(F)cn3)c2)c2cnccc21 (single isomer, unassigned) [Example 74, 2-(5-fluoropyridin-2-yl)-N-(5-{[1-(1-hydroxypropan-2-yl)-1H-pyrrolo[3,2-c]pyridin-3-yl]carbonyl}pyridin-3-yl)acetamide] | 233
22 | CC(CO)n1cc(C(=O)c2cncc(NC(=O)Cn3cc(C4CC4)nn3)c2)c2cnccc21 (single isomer, unassigned) [Example 76, 2-(4-cyclopropyl-1H-1,2,3-triazol-1-yl)-N-(5-{[1-(1-hydroxypropan-2-yl)-1H-pyrrolo[3,2-c]pyridin-3-yl]carbonyl}pyridin-3-yl)acetamide] | 121
23 | Cc1cc(C(F)(F)F)nn1CC(=O)Nc1cncc(C(=O)c2cn(C(C)CO)c3ccncc23)c1 (single isomer, unassigned) [Example 77, N-(5-{[1-(1-hydroxypropan-2-yl)-1H-pyrrolo[3,2-c]pyridin-3-yl]carbonyl}pyridin-3-yl)-2-[5-methyl-3-(trifluoromethyl)-1H-pyrazol-1-yl]acetamide] | 33.7
24 | CC(CO)n1cc(C(=O)c2cc(NC(=O)Cc3ccc(Cl)cn3)ccn2)c2cnccc21 (single isomer, unassigned) [Example 86, 2-(5-chloropyridin-2-yl)-N-(2-{[1-(1-hydroxypropan-2-yl)-1H-pyrrolo[3,2-c]pyridin-3-yl]carbonyl}pyridin-4-yl)acetamide] | 93.2

Source: US9163021B2, “Pyrrolo[3,2-c]pyridine tropomyosin-related kinase inhibitors” (Pfizer Limited, priority 2012, dated 2015)
